Article PMC3236199, “Development of Derivatives of 3, 3′-Diindolylmethane as Potent Leishmania donovani Bi-Subunit Topoisomerase IB Poisons” (PLoS ONE, 2011)

Legend:
LdTOP1LS = assay: Plasmid cleavage assay; assay type: biochemical, Leishmania donovani; conditions: 50 µM, pHOT1 DNA
Method: Cleavage assay was carried out as described previously. Briefly, 50 fmol of pHOT1 supercoiled DNA (containing topoisomerase I cleavage site) and 100 fmol of reconstituted LdTOP1LS were incubated in standard reaction mixture (50 µl) containing 50 mM Tris/HCl (pH 7.5), 100 mM KCl, 10 mM MgCl2, 0.5 mM DTT, 0.5 mM EDTA and 30 µg/ml BSA in the presence of various concentrations of drugs at 37°C for 30 min. The reactions were terminated by adding 1% SDS and 150 µg/ml proteinase K and further incubated for 1 h at 37°C. DNA samples were electrophoresed in a 1% agarose gel containing 0.5 µg/ml EtBr.
The effect of DIM and its derivatives on L. donovani topoisomerase I was examined by plasmid DNA cleavage assay as described. The topoisomerase reaction has three general mechanistic steps: (i) binding of enzyme to the substrate DNA, (ii) single strand breakage and subsequent strand rotation through the break leading to change in linking number, and (iii) strand religation. The second step of reaction is the introduction of a single-stranded nick in the phosphodiester bond of the DNA, through which an intact strand is allowed to pass. […]

[1] = tested on: L. donovani topoisomerase I; assay: Immunoband depletion assay, topoisomerase I; assay type: cell-based, Leishmania donovani; conditions: preincubation with 20 µM DHBA before DIM, DPDIM, DMDIM or DMODIM
Method: Leishmania cells (3×10^7) were cultured in absence and presence of the drugs. Nuclear fractions were isolated as described. Briefly, cells were suspended in hypotonic buffer (10 mM Tris-HCl, pH 7.5, 1 mM EDTA, 0.1 mM EGTA, 1 mM PMSF, 1 mM benzamidine hydrochloride and 5 mM DTT) and homogenized. The homogenate was centrifuged for 10 min at 10,000 g. The pellets were washed and used as the source of nuclear fraction. Thereafter, the nuclear fractions were lysed with 1% SDS and subjected to SDS-PAGE (10%). The proteins were electrophoretically transferred to nitrocellulose membranes and immumobloting of immobilized proteins were carried out using a rabbit polyclonal antibody raised against LdTOP1S for topoisomerase I and ATPase domain of L. donovani topoisomerase II [8].
We have reported earlier that DIM induces topoisomerase I and not topoisomerase II-mediated cleavable complex formation in L. donovani. To investigate the ability of DIM derivatives to induce in vivo covalent complex formation between topoisomerase I and DNA in the Leishmania parasites we performed the immunoband depletion experiments with L. donovani promastigotes. Nuclear fractions were prepared from untreated as well as drug-treated promastigotes and subjected to SDS-PAGE. If topoisomerase I can form a covalent complex with genomic DNA inside the cells, then topoisomerase I-DNA cleavable complex cannot enter into the gel. […] The presence of topoisomerase I was detected by immunoblotting as described in ‘Materials and Methods’. It was observed that the immunoband of topoisomerase I disappeared in presence of 20 µM of DIM, DPDIM, DMDIM and DMODIM for 6 h incubation respectively (lanes 2–5). […] It should be mentioned here that topoisomerase I of Leishmania is a heterodimer and the catalytic site (SKXXY) is present in the small subunit of enzyme (LdTOP1S), which is involved in the formation of topoisomerase I-DNA covalent complex. So we have used the antibody raised against the small subunit of L. donovani topoisomerase I to study the immunoband depletion assay.
Figure 6 DIM-derivatives induce in vivo formation of topoisomerase-DNA cleavable complex within the cells. Stabilization of topoisomerase-I mediated cleavable complex was determined by immunoband depletion assay. Top panel: Immunoband depletion of L. donovani topoisomerase I, using an antibody raised against […]. Leishmanial cells were treated with 0.2% DMSO alone (lane 1), 20 µM each of DIM (lane 2), DPDIM (lane 3), DMDIM (lane 4) and DMODIM (lane 5) respectively. Lanes 6–9, preincubation with 20 µM DHBA before treatment with DIM, DPDIM, DMDIM and DMODIM respectively. Bottom panel: β-tubulin loading control.

Compound	conversion of closed circular DNA (form I) to nicked circular DNA (form II) (LdTOP1LS)	immunoband of topoisomerase I after preincubation before treatment with drugs [1]
CC[C@@]1(O)C(=O)OCc2c1cc1n(c2=O)Cc2cc3ccccc3nc2-1 [CPT, camptothecin, reference compound]	totally converted to nicked circular DNA	–
CC(C)[C@@H]1CC[C@]2(C(=O)O)CC[C@]3(C)C(CCC4[C@@]5(C)CC[C@H](O)C(C)(C)C5CC[C@]43C)C12 (some centres unmarked) [DHBA, reference compound]	–	reappearance of immunoband
